Data: ChEMBL document CHEMBL5352469, “Solubility-driven optimization of benzothiopyranone salts leading to a preclinical candidate with improved pharmacokinetic properties and activity against Mycobacterium tuberculosis” (Eur J Med Chem, 2023)
Converted amounts (≈) assume the structure as drawn.

Key:
[1] = Aqueous solubility of compound by HPLC-PDA method; type: physicochemical; settings: buffer
[2] = Apparent permeability across apical to basolateral side in human Caco-2 cells incubated for 21 days; type: ADME, cell-based; settings: time 21 day
[3] = Apparent permeability across basolateral to apical side in human Caco-2 cells incubated for 21 days; type: ADME, cell-based; settings: time 21 day
[4] = Efflux ratio of apparent permeability across basolateral to apical side over apical to basolateral side in human Caco-2 cells; type: ADME, cell-based
[5] = Elimination half life in Balb/c mouse at 50 mg/kg, po measured upto 24 hrs by LC/MS/MS analysis; type: ADME, organism-based; settings: in vivo, read-out: beta t1/2 (converted)
[6] = Elimination half life in Balb/c mouse at 5 mg/kg, iv measured upto 24 hrs by LC/MS/MS analysis; type: ADME, organism-based; settings: in vivo, read-out: beta t1/2 (converted)
[7] = Tmax in Balb/c mouse at 50 mg/kg, po measured upto 24 hrs by LC/MS/MS analysis; type: ADME, organism-based; settings: in vivo
[8] = Cmax in Balb/c mouse at 50 mg/kg, po measured upto 24 hrs by LC/MS/MS analysis; type: ADME, organism-based; parameters: time < 24 hrs, dose 50 mg/kg, route po; settings: in vivo
[9] = Cmax in Balb/c mouse at 5 mg/kg, iv measured upto 24 hrs by LC/MS/MS analysis; type: ADME, organism-based; parameters: dose 5 mg/kg, time < 24 hrs, route iv; settings: in vivo
[10] = AUC (0 to t) in Balb/c mouse at 50 mg/kg, po measured upto 24 hrs by LC/MS/MS analysis; type: ADME, organism-based; parameters: dose 50 mg/kg, time < 24 hrs, route po; settings: in vivo
[11] = AUC (0 to t) in Balb/c mouse at 5 mg/kg, iv measured upto 24 hrs by LC/MS/MS analysis; type: ADME, organism-based; parameters: time < 24 hrs, dose 5 mg/kg, route iv; settings: in vivo
[12] = Oral bioavailability in Balb/c mouse at 50 mg/kg measured upto 24 hrs by LC/MS/MS analysis; type: ADME, organism-based; settings: in vivo
[13] = Elimination half life in Sprague-Dawley rat at 50 mg/kg, po measured upto 24 hrs by LC/MS/MS analysis; type: ADME, organism-based; settings: in vivo, read-out: beta t1/2 (converted)
[14] = Elimination half life in Sprague-Dawley rat at 5 mg/kg, iv measured upto 24 hrs by LC/MS/MS analysis; type: ADME, organism-based; settings: in vivo, read-out: beta t1/2 (converted)
[15] = Tmax in Sprague-Dawley rat at 50 mg/kg, po measured upto 24 hrs by LC/MS/MS analysis; type: ADME, organism-based; settings: in vivo
[16] = Cmax in Sprague-Dawley rat at 50 mg/kg, po measured upto 24 hrs by LC/MS/MS analysis; type: ADME, organism-based; parameters: time < 24 hrs, dose 50 mg/kg, route po; settings: in vivo
[17] = Cmax in Sprague-Dawley rat at 5 mg/kg, iv measured upto 24 hrs by LC/MS/MS analysis; type: ADME, organism-based; parameters: time < 24 hrs, dose 5 mg/kg, route iv; settings: in vivo
[18] = AUC (0 to t) in Sprague-Dawley rat at 50 mg/kg, po measured upto 24 hrs by LC/MS/MS analysis; type: ADME, organism-based; parameters: dose 50 mg/kg, time < 24 hrs, route po; settings: in vivo
[19] = AUC (0 to t) in Sprague-Dawley rat at 5 mg/kg, iv measured upto 24 hrs by LC/MS/MS analysis; type: ADME, organism-based; parameters: time < 24 hrs, dose 5 mg/kg, route iv; settings: in vivo
[20] = AUC (0 to infinity) in Sprague-Dawley rat at 50 mg/kg, po measured upto 24 hrs by LC/MS/MS analysis; type: ADME, organism-based; parameters: time < 24 hrs, dose 50 mg/kg, route po; settings: in vivo
[21] = AUC (0 to infinity) in Sprague-Dawley rat at 5 mg/kg, iv measured upto 24 hrs by LC/MS/MS analysis; type: ADME, organism-based; parameters: time < 24 hrs, dose 5 mg/kg, route iv; settings: in vivo
[22] = MRT (0 to infinity) in Sprague-Dawley rat at 50 mg/kg, po measured upto 24 hrs by LC/MS/MS analysis; type: ADME, organism-based; settings: in vivo
[23] = MRT (0 to infinity) in Sprague-Dawley rat at 5 mg/kg, iv measured upto 24 hrs by LC/MS/MS analysis; type: ADME, organism-based; settings: in vivo
[24] = Clearance in Sprague-Dawley rat at 5 mg/kg, iv measured upto 24 hrs by LC/MS/MS analysis; type: ADME, organism-based; settings: in vivo
[25] = Oral bioavailability in Sprague-Dawley rat at 50 mg/kg measured upto 24 hrs by LC/MS/MS analysis; type: ADME, organism-based; settings: in vivo
[26] = Chemical stability of the compound under 4500 +/- 500 lx light condition by measuring compound purity incubated for 10 days by HPLC-PDA method relative to initial purity; type: physicochemical; settings: 240 h; time 10 day
[27] = Chemical stability of the compound under 60 degree C high temperature by measuring compound purity incubated for 10 days by HPLC-PDA method analysis relative to initial purity; type: physicochemical; settings: 240 h; time 10 day
[28] = Chemical stability of the compound under 92.5% humidity by measuring compound purity incubated for 10 days by HPLC-PDA method relative to initial purity; type: physicochemical; settings: 240 h; time 10 day
[29] = Lipophilicity, log P of the compound in octanol/water incubated for 72 hrs under shaking condition by shake flask based HPLC-PDA method; type: physicochemical; settings: 72 h
[30] = Lipophilicity, log D of the compound in octanol/water at pH 2.0 incubated for 72 hrs under shaking condition by shake flask based HPLC-PDA method; type: physicochemical; settings: pH 2, 72 h
[31] = Lipophilicity, log D of the compound in octanol/water at pH 4.0 incubated for 72 hrs under shaking condition by shake flask based HPLC-PDA method; type: physicochemical; settings: pH 4, 72 h
[32] = Lipophilicity, log D of the compound in octanol/water at pH 6.8 incubated for 72 hrs under shaking condition by shake flask based HPLC-PDA method; type: physicochemical; settings: pH 6.8, 72 h
[33] = Lipophilicity, log D of the compound in octanol/water at pH 7.6 incubated for 72 hrs under shaking condition by shake flask based HPLC-PDA method; type: physicochemical; settings: pH 7.6, 72 h
[34] = tested on: Mycobacterium tuberculosis; experiment: Antibacterial activity against Mycobacterium tuberculosis H37Rv BALB/c mouse model assessed as reduction in CFU in lungs at 25 mg/kg via oral gavage for 30 days (reference value: 5.92 +/-0.29); type: functional; settings: time 30 day
[35] = tested on: Mycobacterium tuberculosis; experiment: Antibacterial activity against Mycobacterium tuberculosis H37Rv BALB/c mouse model assessed as reduction in delta CFU in lungs at 25 mg/kg via oral gavage for 30 days; type: functional; settings: time 30 day

O=C(O)CC(O)(CC(=O)O)C(=O)O.O=C(O)CC(O)(CC(=O)O)C(=O)O.O=C(O)CC(O)(CC(=O)O)C(=O)O.O=c1cc(N2CCN(CC3CCCCC3)CC2)sc2c([N+](=O)[O-])cc(C(F)(F)F)cc12.O=c1cc(N2CCN(CC3CCCCC3)CC2)sc2c([N+](=O)[O-])cc(C(F)(F)F)cc12
solubility ([1]; read-out: solubility): 128 µg/mL | Papp A→B [2]: 4.08 ×10⁻⁶ cm/s | Papp B→A [3]: 0.26 ×10⁻⁶ cm/s | efflux ratio [4]: 0.1

Cl.O=c1cc(N2CCN(CC3CCCCC3)CC2)sc2c([N+](=O)[O-])cc(C(F)(F)F)cc12
solubility ([1]; read-out: solubility): 28.1 µg/mL | Papp A→B [2]: 0.39 ×10⁻⁶ cm/s | Papp B→A [3]: 0.14 ×10⁻⁶ cm/s | efflux ratio [4]: 0.36 | half-life [5]: 6.72 h | half-life [6]: 7.59 h | Tmax [7]: 0.42 h | Cmax [8]: 502 ng/mL | Cmax [9]: 5990 ng/mL | AUCt ([10]; 24 h): 2251 ng·h/mL | AUCt ([11]; 24 h): 6434 ng·h/mL | F ([12]; po, 50 mg/kg, 24 h): 14.1% | half-life [13]: 5.38 h | half-life [14]: 7.92 h | Tmax [15]: 1.67 h | Cmax [16]: 163 ng/mL | Cmax [17]: 3490 ng/mL | AUC(0-t) at 24 h [18]: 961 ng·h/mL | AUC(0-t) at 24 h [19]: 1890 ng·h/mL | AUC(0-inf) [20]: 982 ng·h/mL | AUC(0-inf) [21]: 1940 ng·h/mL | MRT inf [22]: 5.13 h | MRT inf [23]: 2.52 h | clearance [24]: 43.6 mL/min/kg | bioavailability [25]: 5.07% | Stability [26]: 99.8% | Stability [27]: 100% | Stability [28]: 100% | logP [29]: 2.56 | logD [30]: 1.3 | logD [31]: 3.77 | logD [32]: > 4.27 | logD [33]: > 4.29

O=C(O)/C=C/C(=O)O.O=C(O)/C=C/C(=O)O.O=C(O)/C=C/C(=O)O.O=c1cc(N2CCN(CC3CCCCC3)CC2)sc2c([N+](=O)[O-])cc(C(F)(F)F)cc12.O=c1cc(N2CCN(CC3CCCCC3)CC2)sc2c([N+](=O)[O-])cc(C(F)(F)F)cc12
solubility ([1]; read-out: solubility): 132 µg/mL | Papp A→B [2]: 7.79 ×10⁻⁶ cm/s | Papp B→A [3]: 0.11 ×10⁻⁶ cm/s | half-life [5]: 8.03 h | half-life [6]: 6.98 h | Tmax [7]: 0.67 h | Cmax [8]: 542 ng/mL | Cmax [9]: 2760 ng/mL | AUC(0-t) at 24 h ([10]; Balb/c): 3440 ng·h/mL | AUC(0-t) at 24 h ([11]; Balb/c): 1990 ng·h/mL | bioavailability ([12]; Balb/c): 18.9%

NNC(=O)c1ccncc1 [ISONIAZID]
Activity [34]: 3.64 log10CFU | Activity [35]: 3.89 log10CFU

O=c1nc(N2CCN(CC3CCCCC3)CC2)sc2c([N+](=O)[O-])cc(C(F)(F)F)cc12 [MACOZINONE]
solubility [1]: 0.11 µg/mL (≈ 0.241 µM)
